Measurements reported in PMC5538713, “RORγt and RORα signature genes in human Th17 cells” (PLoS ONE, 2017).
Read-outs that look alike come from different tables or passages of the source.

Key:
Assay in all cases: Cerep selectivity panel
Format in all cases: binding
[1] = target: T1, AT1 (h) (Homo sapiens, UniProt P30556); conditions: for inhibition at 1 µM: read-out: % Inhibition at 1µM; for inhibition at 10 µM: read-out: % Inhibition at 10µM
T1 construct: purchased Cerep
T1 sequence (P30556 1-359): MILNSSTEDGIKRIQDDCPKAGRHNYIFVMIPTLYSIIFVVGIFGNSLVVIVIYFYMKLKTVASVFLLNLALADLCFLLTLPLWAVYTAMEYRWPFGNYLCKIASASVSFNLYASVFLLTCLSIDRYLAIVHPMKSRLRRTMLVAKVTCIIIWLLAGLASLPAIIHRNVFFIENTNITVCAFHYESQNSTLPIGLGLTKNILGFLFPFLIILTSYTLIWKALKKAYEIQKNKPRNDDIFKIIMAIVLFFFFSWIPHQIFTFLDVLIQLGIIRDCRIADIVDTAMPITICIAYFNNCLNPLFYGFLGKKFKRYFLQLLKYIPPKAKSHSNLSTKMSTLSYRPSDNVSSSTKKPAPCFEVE
Protocol: (§1) Supplementary file pone.0181868.s003.docx: S3 Table Selectivity profile of RORγt inverse agonists A, B, C and D. Compounds were evaluated at 1 μM and 10 μM in a panel of assays against 50 receptors, ion channels and transporters (Profile service by Cerep Inc.). (DOCX) Click here for additional data file.
(§2) S3 Table. RORɣt inverse agonists A, B, C and D were evaluated at 1 µM and 10 µM in a panel of assays against 50 receptors, ion channels and transporters (Profile service by Cerep Inc.).

[2] = target: T2, Ab1 (h) (Homo sapiens, UniProt P08588); conditions: for inhibition at 1 µM: read-out: % Inhibition at 1µM; for inhibition at 10 µM: read-out: % Inhibition at 10µM
T2 construct: purchased Cerep
Protocol: as §1, §2

[3] = target: T3, M3 (h) (Homo sapiens, UniProt P20309); conditions: for inhibition at 1 µM: read-out: % Inhibition at 1µM; for inhibition at 10 µM: read-out: % Inhibition at 10µM
T3 construct: purchased Cerep
Protocol: as §1, §2

[4] = target: T4, NK2 (h) (Homo sapiens, UniProt P21452); conditions: for inhibition at 1 µM: read-out: % Inhibition at 1µM; for inhibition at 10 µM: read-out: % Inhibition at 10µM
T4 construct: purchased Cerep
T4 sequence (P21452 1-398): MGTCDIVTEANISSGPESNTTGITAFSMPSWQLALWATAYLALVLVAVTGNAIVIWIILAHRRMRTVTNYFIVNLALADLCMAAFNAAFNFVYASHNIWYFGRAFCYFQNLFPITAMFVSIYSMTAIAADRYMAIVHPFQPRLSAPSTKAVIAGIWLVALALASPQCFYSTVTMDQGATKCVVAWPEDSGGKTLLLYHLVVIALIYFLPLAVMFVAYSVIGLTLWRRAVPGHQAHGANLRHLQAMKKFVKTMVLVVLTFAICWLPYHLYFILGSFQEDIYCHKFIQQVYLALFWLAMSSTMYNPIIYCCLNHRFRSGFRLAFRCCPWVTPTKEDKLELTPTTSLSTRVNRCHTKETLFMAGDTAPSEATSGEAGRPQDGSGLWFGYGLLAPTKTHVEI
Protocol: as §1, §2

[5] = target: T5, NK3 (h) (Homo sapiens, UniProt P29371); conditions: for inhibition at 1 µM: read-out: % Inhibition at 1µM; for inhibition at 10 µM: read-out: % Inhibition at 10µM
T5 construct: purchased Cerep
T5 sequence (P29371 1-465): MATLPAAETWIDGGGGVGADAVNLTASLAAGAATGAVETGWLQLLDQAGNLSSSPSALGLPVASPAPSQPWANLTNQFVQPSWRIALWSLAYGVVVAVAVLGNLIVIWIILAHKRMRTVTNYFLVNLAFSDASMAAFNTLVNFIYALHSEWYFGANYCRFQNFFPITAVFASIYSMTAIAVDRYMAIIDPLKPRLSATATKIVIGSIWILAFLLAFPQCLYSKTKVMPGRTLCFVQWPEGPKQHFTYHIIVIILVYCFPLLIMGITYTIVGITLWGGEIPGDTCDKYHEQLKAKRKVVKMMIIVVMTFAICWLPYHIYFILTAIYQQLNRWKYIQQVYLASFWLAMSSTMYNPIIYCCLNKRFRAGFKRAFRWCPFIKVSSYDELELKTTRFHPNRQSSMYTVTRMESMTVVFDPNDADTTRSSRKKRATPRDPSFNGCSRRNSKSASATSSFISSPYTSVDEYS
Protocol: as §1, §2

[6] = target: T6, OP1 (h) (Homo sapiens, UniProt P41143); conditions: for inhibition at 1 µM: read-out: % Inhibition at 1µM; for inhibition at 10 µM: read-out: % Inhibition at 10µM
T6 construct: purchased Cerep
Protocol: as §1, §2

[7] = target: T7, OP3 (h) (Homo sapiens, UniProt P35372); conditions: for inhibition at 1 µM: read-out: % Inhibition at 1µM; for inhibition at 10 µM: read-out: % Inhibition at 10µM
T7 construct: purchased Cerep
Protocol: as §1, §2

[8] = target: T8, ORL1 (h) (Homo sapiens, UniProt P41146); conditions: for inhibition at 1 µM: read-out: % Inhibition at 1µM; for inhibition at 10 µM: read-out: % Inhibition at 10µM
T8 construct: purchased Cerep
Protocol: as §1, §2

[9] = target: T9, 5-HT6 (h) (Homo sapiens, UniProt P50406); conditions: for inhibition at 10 µM: read-out: % Inhibition at 10µM
T9 construct: purchased Cerep
Protocol: as §1, §2

[10] = target: T10, 5HT2B (h) (Homo sapiens, UniProt P41595); conditions: for inhibition at 10 µM: read-out: % Inhibition at 10µM
T10 construct: purchased Cerep
Protocol: as §1, §2

[11] = target: T11, DA-T (Homo sapiens, UniProt Q01959); conditions: for inhibition at 1 µM: read-out: % Inhibition at 1µM; for inhibition at 10 µM: read-out: % Inhibition at 10µM
T11 construct: purchased Cerep
Protocol: as §1, §2

T11 sequence (Q01959 whole entry): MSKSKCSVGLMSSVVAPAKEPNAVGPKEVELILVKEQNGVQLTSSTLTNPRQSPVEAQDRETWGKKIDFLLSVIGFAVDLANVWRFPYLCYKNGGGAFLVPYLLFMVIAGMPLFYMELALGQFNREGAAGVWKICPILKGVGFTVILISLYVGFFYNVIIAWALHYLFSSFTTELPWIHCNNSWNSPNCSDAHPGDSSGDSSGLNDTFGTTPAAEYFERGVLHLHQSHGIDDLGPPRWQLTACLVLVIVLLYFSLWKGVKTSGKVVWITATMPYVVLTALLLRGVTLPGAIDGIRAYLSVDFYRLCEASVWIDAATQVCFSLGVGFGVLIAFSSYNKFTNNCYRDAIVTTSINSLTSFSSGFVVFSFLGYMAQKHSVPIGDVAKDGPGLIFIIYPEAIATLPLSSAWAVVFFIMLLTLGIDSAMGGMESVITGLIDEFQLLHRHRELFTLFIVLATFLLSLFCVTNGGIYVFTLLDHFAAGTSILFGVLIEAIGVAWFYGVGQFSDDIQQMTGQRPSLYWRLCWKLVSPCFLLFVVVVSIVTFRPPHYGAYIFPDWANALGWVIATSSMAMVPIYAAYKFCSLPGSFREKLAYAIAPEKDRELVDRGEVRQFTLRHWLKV
T2 sequence (P08588 whole entry): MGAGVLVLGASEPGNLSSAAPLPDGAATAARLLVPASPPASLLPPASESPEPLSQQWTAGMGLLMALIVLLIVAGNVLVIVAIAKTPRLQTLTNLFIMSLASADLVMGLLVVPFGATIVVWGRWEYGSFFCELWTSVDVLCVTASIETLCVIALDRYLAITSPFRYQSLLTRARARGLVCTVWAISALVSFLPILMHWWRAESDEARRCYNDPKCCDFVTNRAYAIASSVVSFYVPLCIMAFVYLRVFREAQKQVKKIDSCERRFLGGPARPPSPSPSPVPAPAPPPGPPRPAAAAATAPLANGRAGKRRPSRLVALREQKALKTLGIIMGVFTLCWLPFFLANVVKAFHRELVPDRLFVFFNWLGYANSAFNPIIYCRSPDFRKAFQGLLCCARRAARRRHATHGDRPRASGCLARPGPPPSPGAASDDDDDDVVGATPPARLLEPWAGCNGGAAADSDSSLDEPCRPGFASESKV
T3 sequence (P20309 whole entry): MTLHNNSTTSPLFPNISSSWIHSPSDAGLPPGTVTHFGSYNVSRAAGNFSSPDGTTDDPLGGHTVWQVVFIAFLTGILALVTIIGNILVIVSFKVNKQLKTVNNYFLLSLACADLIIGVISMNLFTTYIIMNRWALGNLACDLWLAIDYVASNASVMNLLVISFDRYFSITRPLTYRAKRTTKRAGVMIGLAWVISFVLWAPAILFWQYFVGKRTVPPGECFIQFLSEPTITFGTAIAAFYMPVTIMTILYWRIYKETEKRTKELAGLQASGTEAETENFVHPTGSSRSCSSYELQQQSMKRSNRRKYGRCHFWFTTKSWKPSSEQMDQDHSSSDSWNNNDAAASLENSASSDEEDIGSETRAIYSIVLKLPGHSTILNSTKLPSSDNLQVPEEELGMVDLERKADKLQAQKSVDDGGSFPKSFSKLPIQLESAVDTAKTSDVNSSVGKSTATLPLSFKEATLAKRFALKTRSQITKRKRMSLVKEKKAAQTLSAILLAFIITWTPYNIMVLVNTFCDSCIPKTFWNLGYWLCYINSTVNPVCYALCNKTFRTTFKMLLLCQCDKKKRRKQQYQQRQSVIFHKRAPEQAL
T10 sequence (P41595 whole entry): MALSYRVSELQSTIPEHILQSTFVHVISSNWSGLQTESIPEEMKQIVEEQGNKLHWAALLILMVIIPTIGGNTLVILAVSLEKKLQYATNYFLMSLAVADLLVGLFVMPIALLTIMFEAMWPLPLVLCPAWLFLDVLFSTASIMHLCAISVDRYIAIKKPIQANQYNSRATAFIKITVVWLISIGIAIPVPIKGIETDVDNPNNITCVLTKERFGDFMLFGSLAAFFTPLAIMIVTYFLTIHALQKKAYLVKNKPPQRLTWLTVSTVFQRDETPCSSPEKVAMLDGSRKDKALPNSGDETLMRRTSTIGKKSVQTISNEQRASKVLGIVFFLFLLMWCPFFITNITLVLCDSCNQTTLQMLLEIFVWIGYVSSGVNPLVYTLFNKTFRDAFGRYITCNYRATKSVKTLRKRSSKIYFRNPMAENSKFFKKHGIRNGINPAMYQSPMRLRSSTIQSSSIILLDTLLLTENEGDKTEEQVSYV
T6 sequence (P41143 whole entry): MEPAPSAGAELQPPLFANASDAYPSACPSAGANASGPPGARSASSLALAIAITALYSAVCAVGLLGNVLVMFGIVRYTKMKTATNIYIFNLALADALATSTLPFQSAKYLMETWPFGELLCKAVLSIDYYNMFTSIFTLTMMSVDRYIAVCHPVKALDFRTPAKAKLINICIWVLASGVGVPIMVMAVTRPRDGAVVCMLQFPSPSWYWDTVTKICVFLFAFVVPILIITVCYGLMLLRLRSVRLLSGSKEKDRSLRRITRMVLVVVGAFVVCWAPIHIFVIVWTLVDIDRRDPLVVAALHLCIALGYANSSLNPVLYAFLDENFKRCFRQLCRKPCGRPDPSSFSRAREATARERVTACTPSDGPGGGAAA
T7 sequence (P35372 whole entry): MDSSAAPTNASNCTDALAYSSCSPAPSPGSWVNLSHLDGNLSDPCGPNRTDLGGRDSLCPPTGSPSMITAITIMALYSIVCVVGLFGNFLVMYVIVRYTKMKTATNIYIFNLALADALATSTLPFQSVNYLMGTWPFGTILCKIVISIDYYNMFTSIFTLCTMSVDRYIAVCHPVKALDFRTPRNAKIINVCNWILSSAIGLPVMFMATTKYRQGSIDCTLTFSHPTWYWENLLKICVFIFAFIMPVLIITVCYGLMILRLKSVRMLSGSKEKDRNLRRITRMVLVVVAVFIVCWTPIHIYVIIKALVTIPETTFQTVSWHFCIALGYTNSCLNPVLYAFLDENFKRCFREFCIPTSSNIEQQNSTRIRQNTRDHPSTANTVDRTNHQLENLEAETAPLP
T8 sequence (P41146 whole entry): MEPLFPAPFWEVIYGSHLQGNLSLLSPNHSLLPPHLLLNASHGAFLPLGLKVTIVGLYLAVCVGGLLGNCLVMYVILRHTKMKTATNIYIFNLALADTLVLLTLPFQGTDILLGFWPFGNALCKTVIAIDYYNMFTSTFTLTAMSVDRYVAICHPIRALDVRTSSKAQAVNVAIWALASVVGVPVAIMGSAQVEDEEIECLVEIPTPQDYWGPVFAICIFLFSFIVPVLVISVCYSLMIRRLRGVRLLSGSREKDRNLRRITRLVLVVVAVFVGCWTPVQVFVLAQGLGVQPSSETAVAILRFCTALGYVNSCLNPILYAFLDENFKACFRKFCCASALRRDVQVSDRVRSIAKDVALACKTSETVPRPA
T9 sequence (P50406 whole entry): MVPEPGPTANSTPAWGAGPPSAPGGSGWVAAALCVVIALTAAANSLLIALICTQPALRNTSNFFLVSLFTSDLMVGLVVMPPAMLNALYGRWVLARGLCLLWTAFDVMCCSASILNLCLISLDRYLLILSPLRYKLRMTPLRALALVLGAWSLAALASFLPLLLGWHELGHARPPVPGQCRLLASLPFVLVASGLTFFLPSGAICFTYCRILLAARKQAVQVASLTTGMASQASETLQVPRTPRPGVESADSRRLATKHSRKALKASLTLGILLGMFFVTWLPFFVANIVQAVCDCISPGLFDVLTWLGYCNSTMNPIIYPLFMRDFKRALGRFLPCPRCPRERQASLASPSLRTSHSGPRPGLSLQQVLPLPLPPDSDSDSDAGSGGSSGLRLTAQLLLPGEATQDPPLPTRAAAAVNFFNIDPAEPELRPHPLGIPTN

Question: How did the inhibition at 1 µM [1] turn out when `COc1nc2ccc([C@](O)(c3ccc(Cl)cc3)c3cncn3C)cc2c(Cl)c1Cc1ccc(-n2cccn2)cc1` [B] was run?
Answer: The inhibition at 1 µM was 1%.

Question: And the inhibition at 10 µM [1]?
Answer: The inhibition at 10 µM was 16%.

Question: What about the inhibition at 1 µM [2] of the same compound?
Answer: The inhibition at 1 µM was 0%.

Question: And the inhibition at 10 µM [2]?
Answer: The inhibition at 10 µM was 2%.

Question: What about the inhibition at 1 µM [3] of the same compound?
Answer: The inhibition at 1 µM was 1%.

Question: What about the inhibition at 10 µM [3] of the same compound?
Answer: Its inhibition at 10 µM is 15%.

Question: What about the inhibition at 1 µM [4] of the same compound?
Answer: Its inhibition at 1 µM is 9%.

Question: And the inhibition at 10 µM [4]?
Answer: The inhibition at 10 µM was 30%.

Question: And the inhibition at 1 µM [5]?
Answer: The inhibition at 1 µM was 1%.

Question: And the inhibition at 10 µM [5]?
Answer: Its inhibition at 10 µM is 10%.

Question: And the inhibition at 1 µM [6]?
Answer: Its inhibition at 1 µM is 6%.

Question: What about the inhibition at 10 µM [6] of the same compound?
Answer: The inhibition at 10 µM was 2%.

Question: What about the inhibition at 1 µM [7] of the same compound?
Answer: The inhibition at 1 µM was 3%.

Question: What about the inhibition at 10 µM [7] of the same compound?
Answer: Its inhibition at 10 µM is 3%.

Question: And the inhibition at 1 µM [8]?
Answer: The inhibition at 1 µM was 6%.

Question: And the inhibition at 10 µM [8]?
Answer: The inhibition at 10 µM was 4%.

Question: What does the source list for `COc1nc2ccc([C@@](O)(c3ccc(C)nc3C)c3cnnn3C)cc2c(Cl)c1Cc1ccc(C(F)(F)F)cc1` [compound A]?
Answer: inhibition at 10 µM ([9]; 5-HT6 (h), 10 µM): 10%; inhibition at 10 µM ([10]; 5HT2B (h), 10 µM): 43%; inhibition at 1 µM ([1]; AT1 (h), 1 µM): 0%; inhibition at 10 µM ([1]; AT1 (h), 10 µM): 32%; inhibition at 1 µM ([2]; Ab1 (h), 1 µM): 0%; inhibition at 10 µM ([2]; Ab1 (h), 10 µM): 10%; inhibition at 1 µM ([11]; DA-T, 1 µM): 38%; inhibition at 10 µM ([11]; DA-T, 10 µM): 81%; inhibition at 10 µM ([3]; M3 (h), 10 µM): 63%; inhibition at 1 µM ([4]; NK2 (h), 1 µM): 7%; inhibition at 10 µM ([4]; NK2 (h), 10 µM): 41%; inhibition at 1 µM ([5]; NK3 (h), 1 µM): 9%; inhibition at 10 µM ([5]; NK3 (h), 10 µM): 57%; inhibition at 1 µM ([6]; OP1 (h), 1 µM): 9%; inhibition at 10 µM ([6]; OP1 (h), 10 µM): 27%; inhibition at 10 µM ([7]; OP3 (h), 10 µM): 17%; inhibition at 1 µM ([8]; ORL1 (h), 1 µM): 1%; inhibition at 10 µM ([8]; ORL1 (h), 10 µM): 10%

Question: For `CN(C)c1nc2ccc(C(O)(c3ccncc3)c3cncn3C)cc2c(Cl)c1-c1ccccc1` (stereo not drawn) [compound D], which inhibition at 10 µM [9] is on record?
Answer: Its inhibition at 10 µM is 18%.

Question: And the inhibition at 10 µM [10]?
Answer: The inhibition at 10 µM was 106%.

Question: And the inhibition at 10 µM [1]?
Answer: Its inhibition at 10 µM is 28%.

Question: And the inhibition at 1 µM [2]?
Answer: The inhibition at 1 µM was 3%.

Question: What about the inhibition at 10 µM [2] of the same compound?
Answer: The inhibition at 10 µM was 2%.

Question: What about the inhibition at 1 µM [11] of the same compound?
Answer: Its inhibition at 1 µM is 23%.

Question: What about the inhibition at 10 µM [11] of the same compound?
Answer: The inhibition at 10 µM was 87%.

Question: What about the inhibition at 1 µM [3] of the same compound?
Answer: The inhibition at 1 µM was 33%.

Question: And the inhibition at 10 µM [3]?
Answer: The inhibition at 10 µM was 70%.

Question: And the inhibition at 1 µM [4]?
Answer: The inhibition at 1 µM was 9%.

Question: And the inhibition at 10 µM [4]?
Answer: The inhibition at 10 µM was 98%.

Question: And the inhibition at 10 µM [5]?
Answer: The inhibition at 10 µM was 45%.

Question: What about the inhibition at 10 µM [6] of the same compound?
Answer: The inhibition at 10 µM was 36%.

Question: And the inhibition at 1 µM [7]?
Answer: Its inhibition at 1 µM is 3%.

Question: What about the inhibition at 10 µM [7] of the same compound?
Answer: The inhibition at 10 µM was 30%.

Question: And the inhibition at 1 µM [8]?
Answer: The inhibition at 1 µM was 5%.

Question: How did the inhibition at 1 µM ([9]; read-out: % Inhibition at 1µM) turn out when `COc1nc2ccc([C@@](O)(c3ccccc3)C3CCN(C(C)=O)CC3)cc2c(Cl)c1Cc1ccc(-n2cccn2)cc1` [C] was run?
Answer: Its inhibition at 1 µM is 20%.

Question: And the inhibition at 10 µM [9]?
Answer: Its inhibition at 10 µM is 22%.

Question: And the inhibition at 1 µM ([10]; read-out: % Inhibition at 1µM)?
Answer: The inhibition at 1 µM was 17.5%.

Question: What about the inhibition at 10 µM [10] of the same compound?
Answer: The inhibition at 10 µM was 1%.

Question: And the inhibition at 10 µM [1]?
Answer: Its inhibition at 10 µM is 11%.

Question: And the inhibition at 1 µM [11]?
Answer: Its inhibition at 1 µM is 17%.

Question: What about the inhibition at 10 µM [11] of the same compound?
Answer: Its inhibition at 10 µM is 25%.

Question: What about the inhibition at 1 µM [3] of the same compound?
Answer: Its inhibition at 1 µM is 21%.

Question: And the inhibition at 10 µM [3]?
Answer: Its inhibition at 10 µM is 19%.

Question: What about the inhibition at 10 µM [4] of the same compound?
Answer: The inhibition at 10 µM was 19%.

Question: What about the inhibition at 1 µM [5] of the same compound?
Answer: Its inhibition at 1 µM is 21%.

Question: What about the inhibition at 10 µM [5] of the same compound?
Answer: Its inhibition at 10 µM is 31%.

Question: And the inhibition at 1 µM [6]?
Answer: Its inhibition at 1 µM is 9%.

Question: What about the inhibition at 10 µM [6] of the same compound?
Answer: Its inhibition at 10 µM is 11%.

Question: What about the inhibition at 1 µM [7] of the same compound?
Answer: The inhibition at 1 µM was 2%.

Question: What about the inhibition at 10 µM [7] of the same compound?
Answer: The inhibition at 10 µM was 15%.
